In the supplement of paper PMC10307832:

Key:
Experiment in all cases: relative viability (nuclei count vs DMSO), 5 days (fraction); higher = more cells survive
ABC-1 = test system: ABC-1
Method in brief: (§1)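 Values are medians from duplicate plates. Each reflects relative viability, defined as the nuclei count of treated wells over that of vehicle wells. Lung cancer cell lines in 1536-well plates were pin-tool dosed one day after seeding with one drug alone or with a fixed anchor-drug dose plus five library-drug doses (not always all listed) in √10 steps, then fixed, stained and imaged at 4× after 5 days.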

NCI-H522 = test system: NCI-H522
Method in brief: as §1

NCI-H650 = test system: NCI-H650
Method in brief: as §1

NCI-H1792 = test system: NCI-H1792
Method in brief: as §1

SW 1573 = test system: SW 1573
Method in brief: as §1

NCI-H1648 = test system: NCI-H1648
Method in brief: as §1

EPLC-272H = test system: EPLC-272H
Method in brief: as §1

HCC-44 = test system: HCC-44
Method in brief: as §1

RERF-LC-KJ = test system: RERF-LC-KJ
Method in brief: as §1

NCI-H647 = test system: NCI-H647
Method in brief: as §1

COR-L 105 = test system: COR-L 105
Method in brief: as §1

SK-MES-1 = test system: SK-MES-1
Method in brief: as §1

HCC-366 = test system: HCC-366
Method in brief: as §1

NCI-H661 = test system: NCI-H661
Method in brief: as §1

LCLC-97TM1 = test system: LCLC-97TM1
Method in brief: as §1

HCC-827 = test system: HCC-827
Method in brief: as §1

NCI-H1395 = test system: NCI-H1395
Method in brief: as §1

NCI-H358 = test system: NCI-H358
Method in brief: as §1

NCI-H2009 = test system: NCI-H2009
Method in brief: as §1

HCC-78 = test system: HCC-78
Method in brief: as §1

HCC-15 = test system: HCC-15
Method in brief: as §1

NCI-H1993 = test system: NCI-H1993
Method in brief: as §1

NCI-H596 = test system: NCI-H596
Method in brief: as §1

Structure (SMILES): C=C1C(=O)O[C@@H](CCCCCCCC)[C@@H]1C(=O)O [C-75] + O=C(c1cc(Cc2n[nH]c(=O)c3ccccc23)ccc1F)N1CCN(C(=O)C2CC2)CC1 [Olaparib] (partner 8 µM)
- relative viability (ABC-1; first compound 0.08 µM): 0.862
- relative viability (ABC-1; first compound 0.253 µM): 0.703
- relative viability (ABC-1; first compound 0.8 µM): 0.811
- relative viability (ABC-1; first compound 2.53 µM): 0.719
- relative viability (ABC-1; first compound 8 µM): 0.792
- relative viability (NCI-H522; first compound 0.08 µM): 0.592
- relative viability (NCI-H522; first compound 0.253 µM): 0.733
- relative viability (NCI-H522; first compound 0.8 µM): 0.662
- relative viability (NCI-H522; first compound 2.53 µM): 0.66
- relative viability (NCI-H522; first compound 8 µM): 0.547
- relative viability (NCI-H650; first compound 0.08 µM): 0.397
- relative viability (NCI-H650; first compound 0.253 µM): 0.438
- relative viability (NCI-H650; first compound 0.8 µM): 0.457
- relative viability (NCI-H650; first compound 2.53 µM): 0.397
- relative viability (NCI-H650; first compound 8 µM): 0.4
- relative viability (NCI-H1792; first compound 0.08 µM): 0.384
- relative viability (NCI-H1792; first compound 0.253 µM): 0.438
- relative viability (NCI-H1792; first compound 0.8 µM): 0.462
- relative viability (NCI-H1792; first compound 2.53 µM): 0.306
- relative viability (NCI-H1792; first compound 8 µM): 0.431
- relative viability (SW 1573; first compound 0.08 µM): 0.485
- relative viability (SW 1573; first compound 0.253 µM): 0.547
- relative viability (SW 1573; first compound 0.8 µM): 0.505
- relative viability (SW 1573; first compound 2.53 µM): 0.309
- relative viability (SW 1573; first compound 8 µM): 0.224
- relative viability (NCI-H1648; first compound 0.08 µM): 0.921
- relative viability (NCI-H1648; first compound 0.253 µM): 1.3
- relative viability (NCI-H1648; first compound 0.8 µM): 0.597
- relative viability (NCI-H1648; first compound 8 µM): 1.03
- relative viability (EPLC-272H; first compound 0.08 µM): 0.874
- relative viability (EPLC-272H; first compound 0.253 µM): 0.878
- relative viability (EPLC-272H; first compound 0.8 µM): 0.702
- relative viability (EPLC-272H; first compound 2.53 µM): 0.701
- relative viability (EPLC-272H; first compound 8 µM): 0.436
- relative viability (HCC-44; first compound 0.08 µM): 0.998
- relative viability (HCC-44; first compound 0.253 µM): 0.944
- relative viability (HCC-44; first compound 0.8 µM): 0.962
- relative viability (HCC-44; first compound 2.53 µM): 0.905
- relative viability (HCC-44; first compound 8 µM): 0.919
- relative viability (RERF-LC-KJ; first compound 0.08 µM): 1.02
- relative viability (RERF-LC-KJ; first compound 0.253 µM): 0.966
- relative viability (RERF-LC-KJ; first compound 0.8 µM): 0.897
- relative viability (RERF-LC-KJ; first compound 2.53 µM): 0.729
- relative viability (RERF-LC-KJ; first compound 8 µM): 0.797
- relative viability (NCI-H647; first compound 0.08 µM): 0.522
- relative viability (NCI-H647; first compound 0.253 µM): 0.727
- relative viability (NCI-H647; first compound 0.8 µM): 0.452
- relative viability (NCI-H647; first compound 2.53 µM): 0.495
- relative viability (NCI-H647; first compound 8 µM): 0.354
- relative viability (COR-L 105; first compound 0.08 µM): 0.719
- relative viability (COR-L 105; first compound 0.253 µM): 0.75
- relative viability (COR-L 105; first compound 0.8 µM): 0.668
- relative viability (COR-L 105; first compound 2.53 µM): 0.62
- relative viability (COR-L 105; first compound 8 µM): 0.523
- relative viability (SK-MES-1; first compound 0.08 µM): 0.78
- relative viability (SK-MES-1; first compound 0.253 µM): 0.772
- relative viability (SK-MES-1; first compound 0.8 µM): 0.724
- relative viability (SK-MES-1; first compound 2.53 µM): 0.638
- relative viability (SK-MES-1; first compound 8 µM): 0.64
- relative viability (HCC-366; first compound 0.08 µM): 0.349
- relative viability (HCC-366; first compound 0.253 µM): 0.49
- relative viability (HCC-366; first compound 0.8 µM): 0.341
- relative viability (HCC-366; first compound 2.53 µM): 0.356
- relative viability (HCC-366; first compound 8 µM): 0.347
- relative viability (NCI-H661; first compound 0.08 µM): 0.725
- relative viability (NCI-H661; first compound 0.253 µM): 0.805
- relative viability (NCI-H661; first compound 0.8 µM): 0.693
- relative viability (NCI-H661; first compound 2.53 µM): 0.66
- relative viability (NCI-H661; first compound 8 µM): 0.699
- relative viability (LCLC-97TM1; first compound 0.08 µM): 0.349
- relative viability (LCLC-97TM1; first compound 0.253 µM): 0.402
- relative viability (LCLC-97TM1; first compound 0.8 µM): 0.494
- relative viability (LCLC-97TM1; first compound 2.53 µM): 0.338
- relative viability (LCLC-97TM1; first compound 8 µM): 0.303
- relative viability (HCC-827; first compound 0.253 µM): 0.622
- relative viability (HCC-827; first compound 0.8 µM): 0.595
- relative viability (HCC-827; first compound 8 µM): 0.657
- relative viability (NCI-H1395; first compound 0.08 µM): 0.423
- relative viability (NCI-H1395; first compound 0.253 µM): 0.433
- relative viability (NCI-H1395; first compound 2.53 µM): 0.465
- relative viability (NCI-H1395; first compound 8 µM): 0.511
- relative viability (NCI-H358; first compound 0.08 µM): 0.642
- relative viability (NCI-H358; first compound 0.253 µM): 0.623
- relative viability (NCI-H358; first compound 0.8 µM): 0.534
- relative viability (NCI-H358; first compound 8 µM): 0.575
- relative viability (NCI-H2009; first compound 0.08 µM): 0.67
- relative viability (NCI-H2009; first compound 0.253 µM): 0.654
- relative viability (NCI-H2009; first compound 0.8 µM): 0.623
- relative viability (NCI-H2009; first compound 2.53 µM): 0.488
- relative viability (NCI-H2009; first compound 8 µM): 0.521
- relative viability (HCC-78; first compound 0.08 µM): 0.838
- relative viability (HCC-78; first compound 0.253 µM): 1.08
- relative viability (HCC-78; first compound 0.8 µM): 0.81
- relative viability (HCC-78; first compound 8 µM): 0.823
- relative viability (HCC-15; first compound 0.08 µM): 0.686
- relative viability (HCC-15; first compound 0.253 µM): 0.752
- relative viability (HCC-15; first compound 0.8 µM): 0.672
- relative viability (HCC-15; first compound 2.53 µM): 0.612
- relative viability (HCC-15; first compound 8 µM): 0.785
- relative viability (NCI-H1993; first compound 0.08 µM): 1.02
- relative viability (NCI-H1993; first compound 0.253 µM): 1.34
- relative viability (NCI-H1993; first compound 0.8 µM): 0.676
- relative viability (NCI-H1993; first compound 2.53 µM): 1.05
- relative viability (NCI-H1993; first compound 8 µM): 1.17
- relative viability (NCI-H596; first compound 0.08 µM): 0.73
- relative viability (NCI-H596; first compound 0.253 µM): 0.686
- relative viability (NCI-H596; first compound 0.8 µM): 0.626
- relative viability (NCI-H596; first compound 2.53 µM): 0.601
- relative viability (NCI-H596; first compound 8 µM): 0.656
